Reference: patent US20050113450A1, “Antibacterial agents” (priority 2002, published 2005)
Values after ≈ are worked out from the molar mass of the structure shown.

test system: SA 9218; experiment: MIC by standard agar dilution method; format: cell-based; settings: Mueller Hinton agar, 10^4 to 10^5 cells per spot, incubated overnight at 35° C., lowest concentration that inhibits visible growth
Method in brief: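 MIC read after overnight 35 °C incubation as lowest drug level preventing visible growth. Inoculum of roughly 10^4–10^5 cells per spot (0.5 McFarland, 1:20 in TSB) applied to Mueller Hinton agar containing serial 2-fold compound dilutions.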

| SMILES | MIC | SA 9218 MIC |
| --- | --- | --- |
| O=C(Nc1ccc(Br)cc1C(=O)O)c1cccc(NC(=O)c2ccc([N+](=O)[O-])o2)c1 [PHA-713387] | 128 µg/mL (≈ 270 µM) |  |
| N#CCCN(Cc1ccccc1)S(=O)(=O)c1cccc(C(=O)Nc2ccc(C#N)cc2C(=O)O)c1 [PHA-571238] | 128 µg/mL (≈ 262 µM) |  |
| O=C(Nc1ccc(Br)cc1C(=O)O)c1cc(S(=O)(=O)Nc2ccc(F)c(Cl)c2)c(F)cc1Cl | > 128 µg/mL |  |
| O=C(O)c1cc(Br)ccc1NC(=O)c1ccc(F)c2ccccc12 | 32 µg/mL (≈ 82.4 µM) |  |
| CCC(CC)C(=O)c1cccc(C(=O)Nc2ccc(Cl)cc2C(=O)O)c1 | 8 µg/mL (≈ 21.4 µM) |  |
| CN(CCc1ccccc1)S(=O)(=O)c1ccc(C(=O)Nc2ccc(C#N)cc2C(=O)O)cc1 [PHA-571169] | 32 µg/mL (≈ 69 µM) |  |
| O=C(Nc1ccc(Br)cc1C(=O)O)c1ccc(OC(F)F)cc1 | 64 µg/mL (≈ 166 µM) |  |
| COc1ccc(Br)c(C(=O)Nc2ccc(Br)cc2C(=O)O)c1 | 128 µg/mL (≈ 298 µM) |  |
| CCCNC(c1cccc(C#N)c1)c1cccc(C(=O)Nc2ccc(Cl)cc2C(=O)O)c1 (stereo not drawn) | 8 µg/mL (≈ 17.9 µM) |  |
| O=C(Nc1ccc(-c2ccccn2)cc1C(=O)O)c1cccc(S(=O)(=O)N2CCc3cc(Cl)ccc32)c1 [PHA-563324] | > 128 µg/mL |  |
| CC(C(O)c1ccccc1)N(C)S(=O)(=O)c1ccc(C(=O)Nc2ccc(C#N)cc2C(=O)O)cc1 (stereo not drawn) [PHA-571228] |  | 32 µg/mL |
| N#Cc1ccc(NC(=O)c2ccc(S(=O)(=O)N3CCC3)cc2)c(C(=O)O)c1 [PHA-571239] | 128 µg/mL (≈ 332 µM) |  |
| CCCCN(CC#N)S(=O)(=O)c1ccc(C(=O)Nc2ccc(C#N)cc2C(=O)O)cc1 [PHA-571203] | 32 µg/mL (≈ 72.6 µM) |  |
| N#Cc1ccc(NC(=O)c2cccc(S(=O)(=O)N3CCCCC3)c2)c(C(=O)O)c1 [PHA-564750] | 0.25 µg/mL (≈ 0.605 µM) |  |
| O=C(Nc1ccc(Br)cc1C(=O)O)c1cccc(NC(=S)Nc2cc(Cl)cc(Cl)c2)c1 [PHA-713396] | 8 µg/mL (≈ 14.8 µM) |  |
| O=C(Nc1ccc(Cl)cc1C(=O)O)c1ccc(C(=O)c2ccccc2)cc1 | 4 µg/mL (≈ 10.5 µM) |  |
| O=C(Nc1ccc(Br)cc1C(=O)O)c1ccc(S(=O)(=O)n2ccc3cc(Cl)ccc32)cc1 [PNU-290905] | 1 µg/mL (≈ 1.87 µM) |  |
| O=C(Nc1ccc(Cl)cc1C(=O)O)c1cccc(C(=O)C2CCCC2)c1 | 8 µg/mL (≈ 21.5 µM) |  |
| CN(c1ccc(Cl)cc1)S(=O)(=O)c1ccc(C(=O)Nc2ccc(Br)cc2C(=O)O)cc1 [PNU-276988] | 16 µg/mL (≈ 30.5 µM) |  |
| Cc1ccc(S(=O)(=O)N(C)c2ccc(Cl)cc2)cc1C(=O)Nc1ccc(Br)cc1C(=O)O [PNU-290821] | 64 µg/mL (≈ 119 µM) |  |
| O=C(Nc1ccc(Cl)cc1C(=O)O)c1ccc(C(=O)c2ccc3c(c2)OCO3)cc1 | 2 µg/mL (≈ 4.72 µM) |  |

| SMILES | MIC | SA 9218 MIC |
| --- | --- | --- |
| O=C(O)c1ccc(NS(=O)(=O)c2ccc(C(=O)Nc3ccc(Br)cc3C(=O)O)cc2)cc1 [PNU-276817] | 4 µg/mL (≈ 7.7 µM) |  |
| Cl.NCc1ccc(C(=O)Nc2ccc(Br)cc2C(=O)O)cc1S(=O)(=O)N1CCc2ccccc21 | > 128 µg/mL |  |
| CC(C)OCCOc1ccc(C(=O)Nc2ccc(Br)cc2C(=O)O)cc1 | > 128 µg/mL |  |
| O=C(Nc1ccc(Br)cc1C(=O)O)c1ccc(OCC2CCOC2)cc1 (stereo not drawn) | 128 µg/mL (≈ 305 µM) |  |
| CCN(CC)c1ccc(NS(=O)(=O)c2ccc(C(=O)Nc3ccc(Br)cc3C(=O)O)cc2)cc1 | 32 µg/mL (≈ 58.6 µM) |  |
| O=C(Nc1ccc(Br)cc1C(=O)O)c1cc(S(=O)(=O)Nc2ccc3c(c2)OCCO3)c(F)cc1Cl | 128 µg/mL (≈ 219 µM) |  |
| CN(c1ccccc1N)S(=O)(=O)c1ccc(C(=O)Nc2ccc(Br)cc2C(=O)O)cc1 [PHA-516113] | 2 µg/mL (≈ 3.97 µM) |  |
| COc1ccc(C(=O)c2cccc(C(=O)Nc3ccc(Cl)cc3C(=O)O)c2)cc1 | 8 µg/mL (≈ 19.5 µM) |  |
| O=C(Nc1ccc(Br)cc1C(=O)O)c1cc(F)ccc1F | 128 µg/mL (≈ 359 µM) |  |
| O=C(Nc1ccc(Br)cc1C(=O)O)c1cccc(S(=O)(=O)NC2Cc3ccccc3C2)c1 | 1 µg/mL (≈ 1.94 µM) |  |
| COc1ccc(C(=O)Nc2ccc(Br)cc2C(=O)O)cc1[N+](=O)[O-] | 32 µg/mL (≈ 81 µM) |  |
| C=CCN(C1CCCC1)S(=O)(=O)c1ccc(C(=O)Nc2ccc(C#N)cc2C(=O)O)cc1 [PHA-571253] | 16 µg/mL (≈ 35.3 µM) |  |
| COc1cc(COc2ccc(C(=O)Nc3ccc(Br)cc3C(=O)O)cc2)cc(OC)c1 | 8 µg/mL (≈ 16.5 µM) |  |
| CC(=O)NCc1ccc(C(=O)Nc2ccc(C#N)cc2C(=O)O)cc1S(=O)(=O)N1CCc2ccccc21 [PHA-740499] | 128 µg/mL (≈ 247 µM) |  |
| CCN(CC)C(=O)c1c(F)ccc(F)c1C(=O)Nc1ccc(Br)cc1C(=O)O | > 128 µg/mL |  |
| Cc1ccc(C(=O)Nc2ccc(Br)cc2C(=O)O)cc1S(=O)(=O)NCCc1ccc(N)cc1 | 8 µg/mL (≈ 15 µM) |  |
| COC(=O)C(Oc1ccc(C(=O)Nc2ccc(Br)cc2C(=O)O)cc1)c1ccccc1 (stereo not drawn) | 64 µg/mL (≈ 132 µM) |  |
| COCC1CCCN1S(=O)(=O)c1cccc(C(=O)Nc2ccc(C#N)cc2C(=O)O)c1 (stereo not drawn) | 64 µg/mL (≈ 144 µM) |  |
| Cc1cc(C)c(C(=O)Nc2ccc(C(=O)Nc3ccc(Br)cc3C(=O)O)cc2)c(C)c1 [PHA-708982] | 128 µg/mL (≈ 266 µM) |  |
| O=C(Nc1cccc(C(=O)Nc2ccc(Br)cc2C(=O)O)c1)Nc1ccc(F)cc1F [PHA-708989] | 8 µg/mL (≈ 16.3 µM) |  |
| CN(CCc1ccccn1)S(=O)(=O)c1cccc(C(=O)Nc2ccc(C#N)cc2C(=O)O)c1 [PHA-656872] | > 128 µg/mL |  |

| SMILES | MIC | SA 9218 MIC |
| --- | --- | --- |
| O=C(Nc1ccc(Cl)cc1C(=O)O)c1cccc(C(NCc2cccc(Cl)c2)c2ccccc2)c1 (stereo not drawn) | 16 µg/mL (≈ 31.7 µM) |  |
| CSc1cccc(NC(=S)Nc2cccc(C(=O)Nc3ccc(Br)cc3C(=O)O)c2)c1 [PHA-713407] | 32 µg/mL (≈ 62 µM) |  |
| N#Cc1ccc(NC(=O)c2cccc(SCc3ccncc3)c2)c(C(=O)O)c1 [PHA-569044] | 0.25 µg/mL (≈ 0.642 µM) |  |
| CCCC(=O)c1ccc(NC(=O)c2ccc(S(=O)(=O)N3CCc4ccc(Cl)cc43)cc2)c(C(=O)O)c1 | 16 µg/mL (≈ 30.4 µM) |  |
| CCOC(=O)C1CCC(Oc2cccc(C(=O)Nc3ccc(Br)cc3C(=O)O)c2)CC1 (stereo not drawn) [PHA-571289] | 32 µg/mL (≈ 65.3 µM) |  |
| O=C(Nc1ccc(Cl)cc1C(=O)O)c1ccc(S(=O)(=O)N2CCc3ccccc32)c([N+](=O)[O-])c1 [PNU-283599] | 1 µg/mL (≈ 1.99 µM) |  |
| Cc1ccc(-c2ccc(NC(=O)c3cccc(S(=O)(=O)N4CCc5cc(Cl)ccc54)c3)c(C(=O)O)c2)s1 [PHA-563282] | 1 µg/mL (≈ 1.81 µM) |  |
| N#Cc1ccc(NC(=O)c2ccc(S(=O)(=O)N3CCCC4CCCCC43)cc2)c(C(=O)O)c1 (stereo not drawn) [PHA-571249] | 16 µg/mL (≈ 34.2 µM) |  |
| CN(c1ccc(Cl)cc1)S(=O)(=O)c1cc(C(=O)Nc2ccc(Br)cc2C(=O)O)ccc1N1CCOCC1 [PNU-293795] | 32 µg/mL (≈ 52.6 µM) |  |
| CN(c1ccc(Cl)cc1)S(=O)(=O)c1cc(Br)cc(C(=O)Nc2ccc(Br)cc2C(=O)O)c1 [PHA-631082] | 0.25 µg/mL (≈ 0.415 µM) |  |
| O=C(Nc1ccc(Oc2ccccc2)cc1)Nc1cccc(C(=O)Nc2ccc(Br)cc2C(=O)O)c1 [PHA-713399] | 16 µg/mL (≈ 29.3 µM) |  |
| N#Cc1cccc(C(=O)Nc2ccc(Br)cc2C(=O)O)c1 | > 128 µg/mL |  |
| COc1cc(OC)cc(C(=O)Nc2ccc(Br)cc2C(=O)O)c1 | 16 µg/mL (≈ 42.1 µM) |  |
| O=C(Nc1ccc(Br)cc1C(=O)O)c1ccc(NC(=O)c2sc3ccccc3c2Cl)cc1 [PHA-713392] | > 128 µg/mL |  |
| O=C(Nc1ccc(Br)cc1C(=O)O)c1cccc(C(=O)c2ccccc2)c1 [PHA-515448] | 2 µg/mL (≈ 4.71 µM) |  |
| O=C(Nc1ccc(Br)cc1C(=O)O)c1cc(S(=O)(=O)NC2Cc3ccccc3C2)ccc1Br | 0.25 µg/mL (≈ 0.421 µM) |  |
| O=C(Nc1ccc(Br)cc1C(=O)O)c1cccc(C(=NO)c2ccccc2)c1 [drawing 1035] | 0.5 µg/mL (≈ 1.14 µM) |  |
| CCOCCOCCOc1ccc(C(=O)Nc2ccc(Br)cc2C(=O)O)cc1 | 128 µg/mL (≈ 283 µM) |  |
| O=C(Nc1ccc(Cl)cc1C(=O)O)c1cccc(C(=NO)c2cccnc2)c1 | 4 µg/mL (≈ 10.1 µM) |  |
| O=C(Nc1ccc(-c2cccs2)cc1C(=O)O)c1cccc(S(=O)(=O)N2CCc3cc(Cl)ccc32)c1 [PHA-556657] | 2 µg/mL (≈ 3.71 µM) |  |
| COc1ccc(C(=O)Nc2ccc(Br)cc2C(=O)O)cc1S(=O)(=O)Nc1ccc(N2CCOCC2)cc1 | 64 µg/mL (≈ 108 µM) |  |
